Test results from paper PMC7762174 (Viruses, 2020).
Structures can show the parent of a compound that is named as a salt. Where two headings read alike, the source gives them in different places.

How the values were obtained:
HIV-1_91US005 [1] = details: HIV-1, human PBMC, p24 ELISA; 95% CI in brackets
human PBMCs [2] = experiment: Cytotoxicity in PBMC (MTS)
HIV-1_91US005 [3] = details: HIV-1, human PBMC, RT assay, 7 days; 95% CI in brackets
SARS-CoV-2 [4] = experiment: microbe, parasite or virus in culture; format: cell-based
in vitro [5] = details: African green monkey
[6] = tested on: primary human foreskin fibroblasts (HFFs); set-up: method as in ref 28 = [28]; details: HFF; reported previously; cited from earlier work
HCMV AD169-GFP = experiment: microbe, parasite or virus in culture; format: cell-based, human cytomegalovirus; details: Human betaherpesvirus 5, AD169, 168 h
SARS-CoV-2 [7] = experiment: microbe, parasite or virus in culture; format: cell-based; details: for reduction in viral yield: Vero 76, 3 days
in vitro [8] = format: cell-based; details: African green monkey
in vitro [9] = format: cell-based; details: human
in vitro [10] = details: African green monkey; remark: listed apart in the source
SARS-CoV-2 [11] = format: cell-based
Vero cells = details: African green monkey
SARS-CoV-2 [12] = experiment: microbe, parasite or virus in culture; format: cell-based; remark: listed apart in the source
[13] = target: T1, N-terminally truncated recombinant hDHODH enzyme (Homo sapiens, UniProt Q02127); experiment: In vitro inhibition of human DHODH; format: biochemical
T1 construct: using an N-terminally truncated recombinant hDHODH enzyme as described

[14] = Neutral Red assay (NRA) cytotoxicity; details: African green monkey
HIV-1_91US005 [15] = experiment: microbe, parasite or virus in culture; details: Human immunodeficiency virus 1, PBMC
MPO in colonic tissue = tested on: MPO in colonic tissue; set-up: method as in ref 57 = [57]; details: murine TNBS-induced colitis model; cited from earlier work
in vitro [16] = details: human
HIV-1_91US005 [17] = experiment: microbe, parasite or virus in culture; details: Human immunodeficiency virus 1, PBMC, 168 h
inflammation in the lung = tested on: inflammation in the lung; set-up: method as in ref 57 = [57]; details: mouse model of systemic lupus erythematosus; cited from earlier work
in vitro [18] = details: human; remark: listed apart in the source
human PBMCs [19] = details: 7 days, 100 µM
[20] = tested on: primary human foreskin fibroblasts (HFFs)
[21] = Cytotoxicity in Huh7 replicon cells (CytoTox-1 cell proliferation assay); details: human
[22] = tested on: Huh7 human hepatoma cell line; experiment: as above; details: highest concentration (30 µM), Huh7
[23] = tested on: HCV subgenomic replicon of genotype 1b; experiment: HCV subgenomic replicon Luc reporter assay in Huh7; format: cell-based; details: Hepatitis C virus, Huh-7, 24 h
[24] = Severe acute respiratory syndrome coronavirus 2, RT-qPCR, Vero cells, read-out: Anti-SARS-CoV-2 drug efficacy on Vero cells: EC50
[25] = Severe acute respiratory syndrome coronavirus 2, Caco-2

T1 sequence (Q02127 29-395 limits assumed): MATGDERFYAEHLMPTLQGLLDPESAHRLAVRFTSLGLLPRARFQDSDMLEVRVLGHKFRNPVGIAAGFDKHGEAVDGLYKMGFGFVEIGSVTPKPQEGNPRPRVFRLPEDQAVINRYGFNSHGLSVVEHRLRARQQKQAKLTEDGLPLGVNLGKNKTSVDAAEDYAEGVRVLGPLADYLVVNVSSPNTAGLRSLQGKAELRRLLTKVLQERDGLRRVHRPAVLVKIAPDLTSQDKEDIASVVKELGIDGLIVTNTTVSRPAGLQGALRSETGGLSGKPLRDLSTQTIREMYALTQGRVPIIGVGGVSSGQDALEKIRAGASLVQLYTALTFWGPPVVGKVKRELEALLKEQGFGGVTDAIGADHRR

Compound: Cc1cn([C@H]2C[C@H](N=[N+]=[N-])[C@@H](CO)O2)c(=O)[nH]c1=O [AZT, azidothymidine/zidovudine]
- EC50 (HIV-1_91US005 [1]): 0.00027 µM
- CC50 (human PBMCs [2]): > 1 µM
- EC50 (HIV-1_91US005 [3]): 0.00038 µM

Compound: CCN(CC)CCCC(C)Nc1ccnc2cc(Cl)ccc12 (stereo not drawn) [CQ, chloroquine, reference compound]
- EC50 (SARS-CoV-2 [4]; [24]): 2.7 ± 0.9 µM
- CC50 (in vitro [5]): > 20 µM

Compound: Nc1nc(O)c2ncn(COC(CO)CO)c2n1 [GCV, ganciclovir, reference compound]
- CC50 [6]: > 15 µM
- EC50 (HCMV AD169-GFP): 1.69 ± 0.8 µM

Compound: COc1cccc(-c2ccc(NC(=O)C3=C(C(=O)O)CCC3)c(F)c2)c1 [IMU-838, calcium salt of vidofludimus]
- EC90 (SARS-CoV-2 [7]; Severe acute respiratory syndrome coronavirus 2, Vero 76, 72 h): 6.2 ± 1.9 µM
- reduction in viral yield (SARS-CoV-2 [7]; drug alone at 10 µM): ~ 1.7 fold log unit
- EC50 (SARS-CoV-2 [4]; Severe acute respiratory syndrome coronavirus 2, Vero 76, 72 h, read-out: EC50, replicate 3 RT-qPCR): 10 ± 9 µM
- EC50 (SARS-CoV-2 [4]; Severe acute respiratory syndrome coronavirus 2, Vero, 48 h, read-out: EC50, replicate 1 RT-qPCR): 6.8 µM
- EC50 (SARS-CoV-2 [4]; Severe acute respiratory syndrome coronavirus 2, Vero, 72 h, read-out: EC50, replicate 2 RT-qPCR): 6 µM
- EC50 (SARS-CoV-2 [4]; Severe acute respiratory syndrome coronavirus 2, Vero, read-out: Mean EC50 of replicates 1-3): 7.6 ± 5.8 µM
- CC90 (in vitro [8]): > 100 µM
- CC50 (in vitro [9]): > 60 µM
- CC90 (in vitro [9]): > 60 µM
- viability at 3 days, 100 µM (in vitro [10]): 95%
- CC50 (in vitro [10]; CC50): 88.1 ± 3.7 µM
- inhibition of viral RNA production (mAb-dsRNA) (SARS-CoV-2 [11]): concentration-dependent IMU-838-mediated inhibition
- inhibition of viral spike protein production (mAb-S) (SARS-CoV-2 [11]): concentration-dependent IMU-838-mediated inhibition
- CC50 (Vero cells): > 100 µM
- reduction of viral plaques (SARS-CoV-2 [12]; 30 µM, CaCo-2, 72 h p.i.): ~ 1.8 log unit
- EC50 (SARS-CoV-2 [12]; [25]): 7.5 to 15 µM
- EC90 (SARS-CoV-2 [12]; [25]): 15 to 30 µM

Compound: COC(=O)c1c(-c2c(F)cccc2Cl)noc1-c1cnn(-c2cccc(Cl)c2)c1C(F)(F)F [IMU-CO3]
- EC50 (SARS-CoV-2 [4]; [24]): 15.5 ± 4.6 µM
- IC50 [13]: 0.041 µM
- CC50 at 3 days (in vitro [10]; CC50 values on Vero cells): > 100 µM

Compound: CCC(CC)COC(=O)[C@H](C)N[P@](=O)(OC[C@H]1O[C@@](C#N)(c2ccc3c(N)ncnn23)[C@H](O)[C@@H]1O)Oc1ccccc1 [RDV, remdesivir]
- reduction in viral yield (SARS-CoV-2 [7]; drug alone at 5 µM): ~ 3.8 fold log unit
- reduction in viral yield (SARS-CoV-2 [7]; drug alone at 10 µM): > 4.0 fold log unit
- EC50 (SARS-CoV-2 [4]; [24]): 1.7 ± 1 µM
- CC50 [14]: > 100 µM
- CC50 (in vitro [5]): > 20 µM

Compound: C/C(O)=C(\C#N)C(=O)Nc1ccc(C(F)(F)F)cc1 [TFNM, teriflunomide]
- EC90 (SARS-CoV-2 [7]; Severe acute respiratory syndrome coronavirus 2, 72 h, Vero 76, USA_WA1/2020, MOI 0.002, VYR, 3 days p.i., read-out: EC90): 14 µM

Compound: COc1cccc(-c2ccc(NC(=O)C3=C(C(=O)O)CCC3)c(F)c2)c1 [Vido, vidofludimus]
- EC50 (HIV-1_91US005 [15]): 1.3 µM
- levels of MPO in colonic tissue (MPO in colonic tissue): reduced the levels of MPO in colonic tissue
- CC50 at 7 days (in vitro [16]): > 100 µM
- EC50 (HIV-1_91US005 [17]): 2.1 µM
- inflammation in the lung (inflammation in the lung): decreased inflammation in the lung
- CC50 (in vitro [18]): > 100 µM
- EC50 (HCMV AD169-GFP): 7.4 ± 0.1 µM
- reduction in cell viability (human PBMCs [19]): 46.8%
- cytotoxicity [20]: absence of detectable cytotoxicity
- CC50 at 24 h [21]: > 30 µM
- reduction in cell viability [22]: 34%
- EC50 [23]: 5.9 µM
